Assay results as given in ChEMBL document CHEMBL3046330, “Synthesis and biological activity of hydrazidehydrazones and their corresponding 3-acetyl-2,5-disubstituted-2,3-dihydro-1,3,4-oxadiazoles” (Med Chem Res, 2012).
pIC50: −log10 of the molar value. Converted amounts (≈) assume the structure as drawn. The source made the active and inactive calls. No cut-off for these calls is given here.

Legend:
[1] = system: Nakaseomyces glabratus; experiment: Antifungal activity against Candida glabrata clinical isolate after 24 hr by NCCLS broth microdilution method; type: functional
[2] = system: BT-549; experiment: Cytotoxicity against Homo sapiens (human) BT549 cells assessed as cell viability up to 25 ug/ml after 48 hr by neutral red assay; type: functional, cell-based
[3] = system: Candida parapsilosis; experiment: Antifungal activity against Candida parapsilosis NRRL Y-12696 after 24 hr by NCCLS broth microdilution method; type: functional; conditions: Lodderomyces parapsilosis, NRRL Y-12696, 24 h
[4] = system: HL-60; experiment: Antioxidant activity in PMA-stimulated Homo sapiens (human) HL60 cells assessed as inhibition of intracellular ROS generation up to 25 ug/ml incubated for 30 min prior to PMA stimulation measured after 30 min by DCFH-DA assay relative to vehicle-treated control; type: functional, cell-based
[5] = system: Vero; experiment: Cytotoxicity against Chlorocebus aethiops (African green monkey) Vero cells assessed as cell viability up to 25 ug/ml after 48 hr by neutral red assay; type: cell-based; conditions: chlorocebus sabaeus
[6] = system: Candida albicans; experiment: Antifungal activity against Candida albicans NRRL Y-12983 after 24 hr by NCCLS broth microdilution method; type: functional; conditions: NRRL Y-12983, 24 h
[7] = system: Candida albicans; experiment: Antifungal activity against Candida albicans ATCC 90028 after 24 hr by NCCLS broth microdilution method; type: functional; conditions: ATCC 90028, 24 h
[8] = system: Cyberlindnera jadinii; experiment: Antifungal activity against Cyberlindnera jadinii NRRL Y-900 after 24 hr by NCCLS broth microdilution method; type: functional; conditions: Williopsis jadinii, NRRL Y-900, 24 h
[9] = Cytotoxicity against Sus scrofa (pig) LLC-PK11 cells assessed as cell viability up to 25 ug/ml after 48 hr by neutral red assay; type: cell-based; conditions: llc-pk11, 48 h
[10] = Inhibition of PMA-induced NFkappaB activity in Homo sapiens (human) SW1353 cells incubated for 30 min followed by PMA induction for 8 hr by luciferase reporter gene assay; type: cell-based
[11] = system: Colletotrichum fragariae; experiment: Antifungal activity against Colletotrichum fragariae at 0.3 to 30 uM after 48 to 72 hr by broth microdilution method; type: functional, organism-based
[12] = system: Candida tropicalis; experiment: Antifungal activity against Candida tropicalis NRRL Y-12968 at 2000 ug/ml by agar diffusion method; type: functional; conditions: read-out: IZ
[13] = system: Candida tropicalis; experiment: Antifungal activity against Candida tropicalis NRRL Y-12968 after 24 hr by NCCLS broth microdilution method; type: functional; conditions: NRRL Y-12968, 24 h
[14] = system: SK-MEL; experiment: Cytotoxicity against Homo sapiens (human) SK-MEL cells assessed as cell viability up to 25 ug/ml after 48 hr by neutral red assay; type: functional, cell-based
[15] = system: Pichia kudriavzevii; experiment: Antifungal activity against Pichia kudriavzevii NRRL Y-7179 after 24 hr by NCCLS broth microdilution method; type: functional; conditions: NRRL Y-7179, 24 h
[16] = target: T1, Nitric oxide synthase, inducible (Mus musculus, UniProt P29477); experiment: Inhibition of iNOS in Mus musculus (mouse) RAW264.7 cells assessed as inhibition of LPS-induced nitrite production incubated for 30 min prior to LPS challenge measured after 24 hr by Griess assay; type: cell-based
T1 sequence (P29477 whole entry): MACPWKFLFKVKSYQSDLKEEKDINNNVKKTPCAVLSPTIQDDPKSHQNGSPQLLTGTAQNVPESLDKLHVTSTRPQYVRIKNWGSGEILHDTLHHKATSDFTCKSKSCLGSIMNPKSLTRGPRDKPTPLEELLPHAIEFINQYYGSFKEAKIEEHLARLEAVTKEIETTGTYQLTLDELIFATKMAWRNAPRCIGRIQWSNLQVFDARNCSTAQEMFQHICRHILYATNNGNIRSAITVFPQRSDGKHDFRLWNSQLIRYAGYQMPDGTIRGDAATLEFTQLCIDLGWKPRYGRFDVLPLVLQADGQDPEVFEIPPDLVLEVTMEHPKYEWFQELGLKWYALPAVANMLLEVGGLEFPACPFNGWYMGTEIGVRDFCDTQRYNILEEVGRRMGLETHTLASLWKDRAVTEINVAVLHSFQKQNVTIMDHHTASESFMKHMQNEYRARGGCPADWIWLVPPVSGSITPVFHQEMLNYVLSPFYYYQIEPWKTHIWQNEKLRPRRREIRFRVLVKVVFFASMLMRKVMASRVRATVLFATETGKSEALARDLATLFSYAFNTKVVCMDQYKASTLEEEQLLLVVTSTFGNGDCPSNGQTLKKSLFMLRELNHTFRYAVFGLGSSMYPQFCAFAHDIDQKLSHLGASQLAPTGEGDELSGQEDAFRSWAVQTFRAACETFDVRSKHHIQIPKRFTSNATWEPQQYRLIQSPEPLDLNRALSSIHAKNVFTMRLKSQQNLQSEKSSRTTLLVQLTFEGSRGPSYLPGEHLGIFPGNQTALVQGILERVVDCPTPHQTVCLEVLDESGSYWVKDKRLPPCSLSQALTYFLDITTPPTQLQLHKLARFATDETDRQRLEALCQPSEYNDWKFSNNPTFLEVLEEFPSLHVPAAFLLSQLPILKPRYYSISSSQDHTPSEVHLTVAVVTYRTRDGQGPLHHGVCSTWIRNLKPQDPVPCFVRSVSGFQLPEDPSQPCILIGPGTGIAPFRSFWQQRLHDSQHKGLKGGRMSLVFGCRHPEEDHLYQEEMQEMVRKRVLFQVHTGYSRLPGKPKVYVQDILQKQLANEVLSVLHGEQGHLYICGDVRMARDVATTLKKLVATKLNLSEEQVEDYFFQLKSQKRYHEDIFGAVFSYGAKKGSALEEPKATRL

[17] = system: SK-OV-3; experiment: Cytotoxicity against Homo sapiens (human) SKOV3 cells assessed as cell viability up to 25 ug/ml after 48 hr by neutral red assay; type: functional, cell-based
[18] = system: KB; experiment: Cytotoxicity against Homo sapiens (human) KB cells assessed as cell viability up to 25 ug/ml after 48 hr by neutral red assay; type: functional, cell-based
[19] = system: Candida albicans; experiment: Antifungal activity against Candida albicans clinical isolate after 24 hr by NCCLS broth microdilution method; type: functional
[20] = system: HL-60; experiment: Cytotoxicity against Homo sapiens (human) HL60 cells up to 25 ug/ml; type: cell-based
[21] = system: RAW264.7; experiment: Cytotoxicity against Mus musculus (mouse) RAW264.7 cells up to 25 ug/ml; type: cell-based
[22] = system: Botrytis cinerea; experiment: Antifungal activity against Botryotinia fuckeliana at 0.3 to 30 uM after 48 to 72 hr by broth microdilution method; type: functional, organism-based
[23] = system: Candida albicans; experiment: Antifungal activity against Candida albicans clinical isolate at 2000 ug/ml by agar diffusion method; type: functional; conditions: read-out: IZ
[24] = target: Transcription factor Sp1 (Homo sapiens, UniProt P08047); experiment: Inhibition of Sp1 (unknown origin) up to 25 ug/ml by luciferase reporter gene assay
Chain of Transcription factor Sp1 (P08047 whole entry): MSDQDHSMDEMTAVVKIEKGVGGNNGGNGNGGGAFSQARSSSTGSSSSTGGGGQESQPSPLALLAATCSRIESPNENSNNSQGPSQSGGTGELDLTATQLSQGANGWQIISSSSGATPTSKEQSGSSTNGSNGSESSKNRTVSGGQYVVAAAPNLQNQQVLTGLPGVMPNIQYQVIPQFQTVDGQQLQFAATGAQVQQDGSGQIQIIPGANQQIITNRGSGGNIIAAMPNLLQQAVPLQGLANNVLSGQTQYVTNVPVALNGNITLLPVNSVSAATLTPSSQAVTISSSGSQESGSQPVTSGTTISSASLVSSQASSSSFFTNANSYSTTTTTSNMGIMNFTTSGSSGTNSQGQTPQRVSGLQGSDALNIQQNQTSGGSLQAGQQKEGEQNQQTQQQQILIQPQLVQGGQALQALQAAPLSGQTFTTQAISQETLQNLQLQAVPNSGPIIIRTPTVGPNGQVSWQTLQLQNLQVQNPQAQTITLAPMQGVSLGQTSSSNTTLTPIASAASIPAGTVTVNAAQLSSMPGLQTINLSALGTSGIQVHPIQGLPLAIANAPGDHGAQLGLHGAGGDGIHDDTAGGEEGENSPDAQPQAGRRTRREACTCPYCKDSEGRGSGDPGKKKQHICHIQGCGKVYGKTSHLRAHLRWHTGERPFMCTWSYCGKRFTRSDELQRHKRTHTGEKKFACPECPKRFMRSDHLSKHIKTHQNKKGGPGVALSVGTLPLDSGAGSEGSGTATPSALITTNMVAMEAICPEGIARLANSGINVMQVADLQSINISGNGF

[25] = system: HL-60; experiment: Antioxidant activity in PMA-stimulated Homo sapiens (human) HL60 cells assessed as inhibition of intracellular ROS generation incubated for 30 min prior to PMA stimulation measured after 30 min by DCFH-DA assay; type: functional, cell-based
[26] = system: SW1353; experiment: Inhibition of PMA-induced NFkappaB activity in Homo sapiens (human) SW1353 cells up to 25 ug/ml incubated for 30 min followed by PMA induction for 8 hr by luciferase reporter gene assay; type: cell-based
[27] = system: HL-60; experiment: Cytotoxicity against Homo sapiens (human) HL60 cells; type: cell-based
[28] = target: T2, Nitric oxide synthase, inducible (Mus musculus) (UniProt P29477); experiment: Inhibition of iNOS in Mus musculus (mouse) RAW264.7 cells assessed as inhibition of LPS-induced nitrite production up to 25 ug/ml incubated for 30 min prior to LPS challenge measured after 24 hr by Griess assay relative to vehicle-treated control; type: cell-based
T2 sequence (whole entry): T1 sequence (P29477 whole entry)

SMILES	MIC [1] [µg/mL]	Activity [2]	MIC [3] [µg/mL]	Activity [5]	MIC [6] [µg/mL]	MIC [7] [µg/mL]	MIC [8] [µg/mL]	Activity [9]	IC50 [10] [µg/mL]	zone of inhibition at 2000 µg/mL [12] [mm]	MIC [13] [µg/mL]	Activity [14]	MIC [15] [µg/mL]	Activity [17]	Activity [18]	MIC [19] [µg/mL]	Activity [20]	Activity [21]	zone of inhibition at 2000 µg/mL [23] [mm]	inhibition (INH) [24]	other results
CC(=O)N1N=C(c2ccc(F)cc2)OC1c1ccc(O)cc1 (stereo not drawn)	500 (≈ 1670 µM)	inactive	250 (≈ 833 µM)	Not Active	500 (≈ 1670 µM)	500 (≈ 1670 µM)	125 (≈ 416 µM)	Not Active	5.5 (≈ 18.3 µM)	9	250 (≈ 833 µM)	inactive	250 (≈ 833 µM)	inactive	inactive	250 (≈ 833 µM)	Non-toxic	Non-toxic	9	Not Active	inhibition [4]: inactive; Activity [11]: inactive; pIC50 [16]: 6.00; Activity [22]: inactive
O=C(N/N=C/c1ccco1)c1ccc(F)cc1	250 (≈ 1080 µM)	inactive	500 (≈ 2150 µM)	Not Active	500 (≈ 2150 µM)	500 (≈ 2150 µM)	500 (≈ 2150 µM)	Not Active		9	500 (≈ 2150 µM)	inactive	500 (≈ 2150 µM)	inactive	inactive	250 (≈ 1080 µM)		Non-toxic	9	Not Active	IC50 [25]: 0.7 µg/mL (≈ 3.01 µM); inhibition [26]: inactive; pIC50 [16]: < 3.97; IC50 [27]: 27 µg/mL (≈ 116 µM)
CC(=O)N1N=C(c2ccc(F)cc2)OC1c1ccco1 (stereo not drawn)	500 (≈ 1820 µM)	inactive	1000 (≈ 3650 µM)	Not Active	500 (≈ 1820 µM)	1000 (≈ 3650 µM)	500 (≈ 1820 µM)	Not Active		9	500 (≈ 1820 µM)	inactive	500 (≈ 1820 µM)	inactive	inactive	500 (≈ 1820 µM)		Non-toxic	9	Not Active	inhibition [28]: inactive; IC50 [25]: 5.2 µg/mL (≈ 19 µM); inhibition [26]: inactive; IC50 [27]: 24 µg/mL (≈ 87.5 µM)
O=C(N/N=C/c1ccccc1)c1ccc(F)cc1	250 (≈ 1030 µM)	inactive	250 (≈ 1030 µM)	Not Active	500 (≈ 2060 µM)	500 (≈ 2060 µM)	500 (≈ 2060 µM)	Not Active	2.8 (≈ 11.6 µM)	9		inactive	500 (≈ 2060 µM)	inactive	inactive		Non-toxic	Non-toxic	9		inhibition [28]: inactive; inhibition [4]: inactive
O=C(N/N=C/c1ccc(F)cc1)c1ccc(F)cc1		inactive	500 (≈ 1920 µM)	Not Active	500 (≈ 1920 µM)	500 (≈ 1920 µM)	500 (≈ 1920 µM)	Not Active	15 (≈ 57.6 µM)	9	500 (≈ 1920 µM)	inactive	500 (≈ 1920 µM)	inactive	inactive	250 (≈ 961 µM)	Non-toxic	Non-toxic	9	Not Active	inhibition [28]: inactive; IC50 [25]: 20 µg/mL (≈ 76.9 µM)
